According to BindingDB's records for doi:10.1016/s0028-3908(97)00161-5 (University of Bristol, 1997):

Target: Glutamate receptor (Oryctolagus cuniculus, UniProt G1SXH9)
Sequence (G1SXH9 whole entry): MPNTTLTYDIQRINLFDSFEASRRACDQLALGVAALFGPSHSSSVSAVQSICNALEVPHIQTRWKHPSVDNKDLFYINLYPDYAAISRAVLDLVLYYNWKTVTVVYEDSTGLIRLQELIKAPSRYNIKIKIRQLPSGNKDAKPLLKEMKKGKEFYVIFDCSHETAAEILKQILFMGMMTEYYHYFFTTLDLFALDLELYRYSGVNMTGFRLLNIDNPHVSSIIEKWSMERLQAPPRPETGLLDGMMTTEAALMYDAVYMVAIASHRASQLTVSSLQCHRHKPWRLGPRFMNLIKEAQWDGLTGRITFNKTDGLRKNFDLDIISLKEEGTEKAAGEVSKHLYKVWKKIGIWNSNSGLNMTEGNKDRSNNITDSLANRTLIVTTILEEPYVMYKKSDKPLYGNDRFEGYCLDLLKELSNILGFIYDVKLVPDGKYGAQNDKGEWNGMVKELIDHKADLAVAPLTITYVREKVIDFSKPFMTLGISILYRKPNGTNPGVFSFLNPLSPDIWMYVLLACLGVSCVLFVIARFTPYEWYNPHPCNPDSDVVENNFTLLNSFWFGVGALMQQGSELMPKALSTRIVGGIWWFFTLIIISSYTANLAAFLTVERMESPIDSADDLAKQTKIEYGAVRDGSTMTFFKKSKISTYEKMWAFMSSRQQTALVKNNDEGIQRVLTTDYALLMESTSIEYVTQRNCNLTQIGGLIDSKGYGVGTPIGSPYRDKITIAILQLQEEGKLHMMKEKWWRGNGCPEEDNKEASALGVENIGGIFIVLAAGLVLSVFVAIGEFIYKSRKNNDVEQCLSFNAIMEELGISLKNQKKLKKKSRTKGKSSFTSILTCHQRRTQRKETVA

Structure (SMILES)	Ki [nM]
CN[C@H](CC(=O)O)C(=O)O [NMDA]	> 10000
C/C(=C\C=C\[C@@H](C)C(=O)O)[C@H]1CN[C@H](C(=O)O)[C@H]1CC(=O)O	0.71
N#Cc1cc2nc(O)c(O)nc2cc1[N+](=O)[O-] [7-Cyano-3-hydroxy-6-nitro-quinoxalin-2-ol anion]	2150
N[C@@H](Cn1oc(=O)[nH]c1=O)C(=O)O [2-amino-3-(3,5-dioxo[1,2,4]oxadiazolidin-2-yl)propionic acid]	16.5
N[C@@H](Cn1cc(F)c(=O)[nH]c1=O)C(=O)O [(S)-5-Fluorowillardiine]	> 10000
